Consider eleven substances from patent US7381705B2, “Inhibitors of hepatitis C virus” (The Administrators Of The Tulane Educational Fund, priority 2004, dated 2008).

In assay [1] the test system is HCV pseudotype (HIV core proteins, HCV E1 and E2 of strain H77). The following applies: for Percent inhibition: 25 μM; for Inhibition of HCV pseudotype infectivity (in words): summary of Tables 7 and 8.
The subject of the next assay is HIV-1. The following applies: AIDS patients, clinical trials; cited from earlier work.
Where [2] appears, read: HCV J4 1b E2 peptides at ~25 μM, Table 8, controls as in Table 7.
Setting [3] is: HCV H77 1a E2 peptides at ~25 μM, Table 7, virus alone 448,123.

Read-outs that look alike come from different tables or passages of the source. Ends that are not written are not given here.

As for “TSLFSSGASQKIQLVNTN [compound 82, TSLFSSGASQKIQLVNTN]”, the Percent inhibition in assay [1] was determined as 61.4%. In addition, in assay [1] (setting [2]), the Luciferase units was 173,156 luciferase units (lumens).
In the case of “TTLPALSTGLIHLHQNIV [compound 42, TTLPALSTGLIHLHQNIV]”, the Percent inhibition in assay [1] was found to be 19.1%. Besides, in assay [1] (setting [3]), the Luciferase units is on record as 353,516 luciferase units (lumens).
“TTLPALSTGLIHLHQNIV [compound 117, TTLPALSTGLIHLHQNIV]”: the Percent inhibition in assay [1] is 19.8%. Moreover, the Luciferase units in assay [1] (setting [2]) is given as 359,236 luciferase units (lumens).
In the case of “TYSWGANDTDVFVLNNTR [compound 20, TYSWGANDTDVFVLNNTR]”, the Percent inhibition in assay [1] came out at 48.4%. Further, the Luciferase units in assay [1] (setting [3]) is given as 231,373 luciferase units (lumens).
On to “TYSWGENETDVMLLNNTR [compound 97, TYSWGENETDVMLLNNTR]”, for which, in assay [1], the Percent inhibition turned out to be 51.2%. In addition, the Luciferase units in assay [1] (setting [2]) was 218,673 luciferase units (lumens).
As to “VGLLTPGAKQNIQLINTN [peptide 4, VGLLTPGAKQNIQLINTN]”, in assay [1], the Percent inhibition is listed as 97.6% and the “Inhibition of HCV pseudotype infectivity (in words)” value was “inhibitory”. The Luciferase units in assay [1] (setting [3]) was 10,620 luciferase units (lumens).
Regarding WMNSTGFTKTCGGPPCNI [compound 100], in assay [1], the Percent inhibition was −15.6%. Further, the Luciferase units in assay [1] (setting [2]) was 518,190 luciferase units (lumens).
On to WMNSTGFTKVCGAPPCVI [compound 24], for which the Percent inhibition in assay [1] amounted to 19.7%. In assay [1] (setting [3]), the Luciferase units is given as 391,886 luciferase units (lumens).
With “YLYGVGSSIASWAIKWEY [compound 45, YLYGVGSSIASWAIKWEY]”, in assay [1], the Percent inhibition stood at 94.5% and the “Inhibition of HCV pseudotype infectivity (in words)” value is “inhibitory”. Moreover, the Luciferase units in assay [1] (setting [3]) is 24,703 luciferase units (lumens).
For “YTIFKVRMYVGGVEHRLE [compound 34, YTIFKVRMYVGGVEHRLE]”, the Percent inhibition in assay [1] stood at 21.8%. Besides, the Luciferase units in assay [1] (setting [3]) was 354,696 luciferase units (lumens).
With enfuvirtide, the HIV-1 load entry in the assay with HIV-1 is reported as “substantially reduce”.
